Experiment [1] deals with normal porcine macrophage proteins. Kind of experiment: Solid phase screening of small molecule Library 7 with labeled viral and porcine macrophage proteins. The class given is binding. As to conditions: Normal Macrophages. The source says: (§1) Alternatively, the fluorescent ligand library beads containing bound protein obtained as described in Examples 47, 48, 49 and 51 were sorted using a COPAS (250) NF Bead Sorter (Union Biometrica, Somerville, Mass.) equipped with a dual detector. Both the cyanine dyes used in the labeling procedure, namely Cy 2 (emission wavelength—510 nm) and Cy 3 (emission wavelength—570 nm) were simultaneously excited at […] The bead selection window was then set-up such that all beads containing significant green fluorescence and no red flourescence were isolated. The unselected beads were then resorted to obtain beads containing red fluorescence (proteins from basal cells). The selected red and green fluorescent beads were then sorted into brightly and less brightly fluorescent beads, to give an indication of either the strength of binding of the ligand to a particular protein or the amount of protein present in the sample binding to the ligand.
(§2) Ligands can be completely or partially identified by MALDI_TOF-MS whether or not the library is synthesized by ladder synthesis. […] The ligand is cleaved from the resin bead depending on the type of linker used. […] Peptide fragments (ladder synthesis) or single compounds were extracted from the bead with 0.5 AL CH3CN, then 0.5 FL 70% CH3CN/H2O. […] In the case of the acid labile Rink linker (Library 7), the compound was released from the bead by treatment with 95% TFA or 30 min. The TFA solution was evaporated and the cleaved compounds were extracted in 2 μL 70% acetonitrile+0.1% TFA. This mixture was then transferred to a stainless steel disc to which 0.4 μL of CHC matrix+1.0% TFA was added. An additional 0.4 μL of CHC matrix+1.0% TFA was added to complete sample application.
(§3) A typical analysis employed 100-300 laser shots. […] A typical analysis employed 200-300 laser shots. The possible identity of the ligand was determined (Narrowed down) by comparing the recorded mass of the ligand with the masses of all possible compounds formed in the library. This comparison was carried out using an in-house created computer program The precise identity of the ligand can then be confirmed using MS fragmentation as described in Example 41.
(§4) Isolated proteins that bound to specific ligands were identified using peptide mass fingerprinting. Mass spectra were recorded on a Bruker Reflex m MALDI time-of-flight mass spectrometer (Bruker-Daltonics, Bremen, Germany) operated in the positive reflectron mode using delayed extraction. Measurements were performed using the following parameters: Power 83-84 V; lens 7.300. The sum of 200-300 shots was used for each spectrum.
(§5) The spectra were calibrated using bradykinin peptide. In some cases, internal mass calibration was performed using a porcine trypsin autolysis product Peptide masses were searched against peptide mass maps in the National Center for Biotechnology Information (NCBI) database using the following search engines found on the world wide web (www.) for each of: • MS-FIT (prospector.ucsf.edu/ucsfhtml/msfit.htm), • Profound (129.85.19.192/profound_biniWebProFound.exe), and • MASCOT (matrixscience.com).
(§6) A search was performed using the NCBI bacterial (E. coli) database and the mammalian databases for the isolated proteins from the E. coli and myocyte samples, respectively, and the Swiss Prot mammalian databases and the Swiss Prot viral databases were searched to identify the porcine macrophage proteins and proteins, respectively. A molecular mass range was estimated from 0-250 K Da, allowing a mass accuracy that varied from 0.1 Da (some cases 0.3 Da) for each peptide mass. A large pI range from 0-14 or 0-12 was considered for each search. If no proteins matched, the mass window was extended. Partial enzyme cleavages allowing for two missed cleavage sites and modification of cysteine by alkylation were considered in the search approaches. A protein was considered identified if the matched peptides covered at least 30% of the complete sequence. […]

For experiment [2], the system named is porcine reproductive and respiratory virus infected macrophage proteins. The experiment is described as above. The note with it: Virus-infected Macrophages, (V) indicates virus proteins. Format: binding.
From the text: as §1, §2, §3, §4, §5, §6

For experiment [3], the system named is phenylephrine (PE)-treated myocyte proteins. Kind of experiment: Solid phase screening of Library 1 with labeled myocyte proteins; bound proteins identified by on-bead digest and peptide mass fingerprinting. The class given is binding, neonatal Wistar rats. The note with it: Library 1 ligand on PEGA4000 bead; Phenylephrine Treated (Hyperthrophic) Myocytes. On the procedure: Myocytes were prepared from 1 to 5 day old neonatal Wistar rats (University of Copenhagen) according to literature procedure described in Busk et al., 2002, Cardiovasc. Res., 56: 64-75 and plated into eight P10 culture plates at 6 million cells/plate.
Protein was extracted from myocytes prepared as described above for Example 9, using a new procedure modified from existing protocols, primarily: Arrott, et al., 1998, Anal Biochem. 258: 1-18. The media was removed from plates and adhered cells were treated for 10 minutes with ice cold phosphate buffer (0.25 mL, 10 mM, pH 7.5, augmented with 0.15 M NaCl 60 mM Benzamidine HCl, 5 mM EDTA, 10 μg/n E-64, 10 μg/mL Leu-peptin, 10 μg/mL Pepstatin A, and 1 mM PMSF). The cells were scraped off the plates and then lysed (on ice) in a sonicator (2×) using 10 seconds off/10 seconds on cycles.
The resulting suspension was augmented with CHAPS, DTT, and urea to a final concentration of CHAPS (1% w/v), DTT (5 mM), and urea (8 M). After 10-15 minutes on ice, the solution was centrifuged for 10 minutes at 15,000 rpm at 4° C. The supernatant was removed and protein content quantified using the NanoOrange Protein test (Molecular Probes, Eugene, Oreg.): Total protein recovered: 70.5 μg for PE-treated cells and 60 μg for basal cells.
Fluorescent dye Oregon Green 514 (OR) (Molecular Probes) was used to label the healthy/basal cells while Rhodamine Red (RR) (Molecular Probes) was used to label the PE-treated cells. The labeling procedures were carried out according to the manufacturer's protocol. The protein solutions (0.25 mL, 50.4 μg for PE cells and 0.25 mL, 42.8 μg for basal cells) were dialyzed against a solution of 10 mM phosphate buffer, 0.15 M NaCl, pH 7.5 and then 1 M NaHCO3 (0.025 mL) added to a final pH of 8.5. 10 μL of dye in dry DMF (10 mg/mL) was added and the sample stirred at room temperature for 2 hours. The protein solution was dialyzed extensively against 10 mM phosphate buffer, 0.15 M NaCl, pH 7.5, to remove excess dye.
Ligand library 1 (200 mg), prepared as described for Example 5, was transferred to a syringe fitted with a stop-valve and the ligand-beads were washed for 10 minutes (3×) with 10 mM phosphate buffer, pH 6.8, supplemented with 0.15 M NaCl, 1 mM Ca^2+, 1 mM Zn^2+, 1 mM Mn^2+, 1 mM Cu^2+, and 1 mM Mg^2+ (3 mL). The ligand-beads were treated with a 1% BSA solution for 30 minutes, then washed with buffer (1×). A mixture of labeled myocyte proteins, including both PE-induced protein (138 μL, 40 μg) and basal protein (167 μL, 40 μg) obtained as described above for Example 11, was prepared in 1.2 mL buffer, and added to the ligand library in the syringe. The proteins and ligand library were incubated at room temperature for 16 hours. The library was then washed with buffer for 5 minutes then with water for 3×5 minutes. The library was examined under a fluorescence microscope and brightly fluorescent red, green, and yellow beads (yellow indicative of both dyes red and green binding; the majority of the beads) were present, as well as unlabelled beads. The fluorescent beads were separated and retained for analysis.
The fluorescent ligand library beads containing bound protein obtained as described in Example 15 were sorted using a COPAS (250) NF Bead Sorter (Union Biometrica, Somerville, Mass.) equipped with a single flourescence emission. Beads emitting fluorescence of only one color contain proteins from one physical state, e.g. proteins expressed only in the PE-induced hypertrophic state (red) or proteins expressed only in the basal state (green). Since the instrument measures one fluorescence emission at a time, beads containing one type of color fluorescence were first sorted and then beads were resorted for emissions from the other fluorescence color. The library was first sorted such that all beads containing significant green fluorescence, basal proteins from healthy myocytes, were isolated. […]

Another experiment concerns cardiac myocytes. The experiment in a line: Inhibition of DNA synthesis (cardiac hypertrophy) in cardiac myocytes treated with peptides (FIG. 3). The class given is cell-based. An excerpt: The columns indicate average induction of DNA synthesis in cardiac myocytes treated with peptides. The Y-axis indicates fold induction (control basal=100%).
The importance of six ligands in cardiac hypertrophy was investigated by examining the effect of the ligand on the increase in protein synthesis (meaured by increase in DNA synthesis) in myocytes that had been treated with serum to induce a hypertrophic state (FIG. 3).

The mark [4] stands for this setting: hypertrophied myocytes (treated with serum to induce a hypertrophic state).

Several values for one entry are separate records, joined by “and”; a condition that tells them apart may be missing. Identical values can stand only once. Entries after “also recorded” stand apart in the source; their conditions may differ. Starred links: 1 amine or outer side, 2 acyl side, 3 side chain; linkers in the order of their positions; H or OH if unused. Non-standard residues stand in square brackets, D forms with d. No end group written: not given here. Gua = 4-S-(Di-Boc-guanidino)-L-proline, CC(C)(C)OC(=O)N=C(NC(=O)OC(C)(C)C)N[C@H]1C[C@@H](C(=O)[*:2])N([*:1])C1; Hyp = O=C(O)[C@@H]1C[C@@H](O)CN1

Regarding `Cc1ccc(-c2csc(C(=O)NCC(=O)O)c2)cc1`, the “Identified Protein(s)” value in experiment [1] is reported as “Salt inducible kinase 2 (27529963); PVHL-ubiqquitin interacting enzyme 2 (23208620); Similar to glyceral- dehyde-3-phosphate dehydrogenase (gi27686413)”. Still for that read-out and setting: for `O=C(O)[C@@H]1CCCN1C(=O)c1ccc(-c2ccco2)o1` the value was “Salt inducible kinase 2 (27529963); PVHL-ubiqquitin interacting enzyme 2 (23208620); Similar to glyceral- dehyde-3-phosphate dehydrogenase (gi27686413)”. On to `COc1ccccc1-c1ccc(C(=O)NCC(=O)O)o1`, for which the “Identified Protein(s)” value in experiment [1] is given as “Salt inducible kinase 2 (27529963); PVHL-ubiqquitin interacting enzyme 2 (23208620); Similar to glyceral- dehyde-3-phosphate dehydrogenase (gi27686413)”. On the same count and under the same terms, for `COc1ccc(-c2ccc(C(=O)NCC(=O)O)o2)cc1` the value was “Salt inducible kinase 2 (27529963); PVHL-ubiqquitin interacting enzyme 2 (23208620); Similar to glyceral- dehyde-3-phosphate dehydrogenase (gi27686413)”; for `NC[C@H](NC(=O)c1cccc(-c2ccco2)n1)C(=O)O`, “Salt inducible kinase 2 (27529963); PVHL-ubiqquitin interacting enzyme 2 (23208620); Similar to glyceral- dehyde-3-phosphate dehydrogenase (gi27686413)”. `COc1ccc(-c2ccc(C(=O)O)cc2)c(OC)c1C(=O)N[C@@H](Cc1c[nH]cn1)C(=O)O`: in experiment [2], the “Identified Protein(s)” value was “Carbohydrate (chondroitin synthase 2) (28466981); Glucosidase II alpha-subunit (gi5452936); Similar to chromosome 9 reading frame 24 (gi29437020) (V) Envelope glycoprotein C2V3 region (gi3925092); Envelope glycoprotein (gi15705767)”. Still for that read-out and setting: for `COc1ccc(OC)c(-c2ccc(OC)c(C(=O)N[C@@H](Cc3c[nH]cn3)C(=O)O)c2OC)c1` the value was “Carbohydrate (chondroitin synthase 2) (28466981); Glucosidase II alpha-subunit (gi5452936); Similar to chromosome 9 reading frame 24 (gi29437020) (V) Envelope glycoprotein C2V3 region (gi3925092); Envelope glycoprotein (gi15705767)”. On to `COc1ccc(OC)c(-c2ccc(C(=O)N[C@@H](Cc3ccc(OC)c(OC)c3)C(=O)O)o2)c1`, for which, in experiment [2], the “Identified Protein(s)” value is on record as “Carbohydrate (chondroitin synthase 2) (28466981); Glucosidase II alpha-subunit (gi5452936); Similar to chromosome 9 reading frame 24 (gi29437020) (V) Envelope glycoprotein C2V3 region (gi3925092); Envelope glycoprotein (gi15705767)”. The same measure, in the same setting: for `COc1ccc(C[C@H](NC(=O)c2ccc(-c3ccc(C(=O)O)cc3)o2)C(=O)O)cc1OC` the value was “Carbohydrate (chondroitin synthase 2) (28466981); Glucosidase II alpha-subunit (gi5452936); Similar to chromosome 9 reading frame 24 (gi29437020) (V) Envelope glycoprotein C2V3 region (gi3925092); Envelope glycoprotein (gi15705767)”. The same measure, in the same setting: for `CC(O)[C@H](NC(=O)c1cc(-c2ccco2)cs1)C(=O)O` (stereo partly shown) the value was “Unnamed protein product (26336134); Seri- ne/threonine kinase 9/cylin dependent Serine/threonine kinase 9(23271297/4507281); Caveolin 1(gi 4972627/AAD347221) (V) Envelope glycoprotein (gi 3832399)”. As to Abi-Thr-Hyp-Hyp-His-, in experiment [3], the “Identified Protein(s)” value is “Phosphofructokinase (gi 7331123); Selenium binding pro-; also recorded: tein (gi 8848341/6677907); (Serine arginine rich pro-; also recorded: tein kinase (LA); Guanylate kinase (gi 20986250) (LA),; also recorded: (M); SPTR (gi 12842823) (M, Actin interacting protein”. For the same compound, the “extent of DNA synthesis” value with cardiac myocytes (setting [4]) and in the experiment with cardiac myocytes (normal myocytes) was “reduced the extent of DNA synthesis” in each case.

For “Lys-Met-Hyp-Trp-Tyr-Gun (KM[Hyp]WY[Gua])”, in experiment [3], the “Identified Protein(s)” value was “Cell surface glycoprotein (gi 23603627); Hypothetical; also recorded: protein (XP-179829; gi 14720727)”. On the same count and under the same terms, the result for Pal-Gly-Abi-Hyp-Pya-Trp reads “NAS putative unclassified (gi 12861084); Putative Zn; also recorded: finger protein 64 (gi 12849329)”; that for Phe-Abi-Pal-Hyp-Thr-Hyp, “Zinc finger associated protein gi 20304091; Ribosomal; also recorded: proteins 40S L series (gi 206736/133023);”. Turning to Phe-Gua-Pal-Tyr-Gua-Tyr, the “Identified Protein(s)” value in experiment [3] is listed as “Glucose-6-Phosphatase (gi 6679893/15488608); Succinate; also recorded: dehydrogenase; ARL-interacting protein (gi 4927202); also recorded: (M); SPTR (gi 12834839) (M), Nucleic acid binding”. Also, the “extent of DNA synthesis” value in the experiment on cardiac myocytes (setting [4]) and with cardiac myocytes (normal myocytes) was “reduced the extent of DNA synthesis” in each case. In the case of Pya-Gua-Abi-Asp-Abi-Tyr, the “Identified Protein(s)” value in experiment [3] is “SPTR (gi 20869775) (M); Ribosomal proteins (60s) (gi and 20875941/6677773); (Calcium channel (gi 3202010) (M): and Slo channel protein isoform (gi 3644046) (M); Potassium and conductance calcium activated channel (gi 6754436 and NP_034740) (M);; Regulator of G-protein signalling 8 and (gi 9507049)”. The “extent of DNA synthesis” value in the experiment on cardiac myocytes (setting [4]) and with cardiac myocytes (normal myocytes) was “reduced the extent of DNA synthesis” in each case.
